From patent US8188085B2, “Antifungal agents” (Merck Sharp & Dohme Corp., priority 2008, dated 2012) come the findings set out here.

Each structure is given as a SMILES string.

glucan synthase (GS) prepared from Candida albicans MY1055, sequence (O13428 1-1897): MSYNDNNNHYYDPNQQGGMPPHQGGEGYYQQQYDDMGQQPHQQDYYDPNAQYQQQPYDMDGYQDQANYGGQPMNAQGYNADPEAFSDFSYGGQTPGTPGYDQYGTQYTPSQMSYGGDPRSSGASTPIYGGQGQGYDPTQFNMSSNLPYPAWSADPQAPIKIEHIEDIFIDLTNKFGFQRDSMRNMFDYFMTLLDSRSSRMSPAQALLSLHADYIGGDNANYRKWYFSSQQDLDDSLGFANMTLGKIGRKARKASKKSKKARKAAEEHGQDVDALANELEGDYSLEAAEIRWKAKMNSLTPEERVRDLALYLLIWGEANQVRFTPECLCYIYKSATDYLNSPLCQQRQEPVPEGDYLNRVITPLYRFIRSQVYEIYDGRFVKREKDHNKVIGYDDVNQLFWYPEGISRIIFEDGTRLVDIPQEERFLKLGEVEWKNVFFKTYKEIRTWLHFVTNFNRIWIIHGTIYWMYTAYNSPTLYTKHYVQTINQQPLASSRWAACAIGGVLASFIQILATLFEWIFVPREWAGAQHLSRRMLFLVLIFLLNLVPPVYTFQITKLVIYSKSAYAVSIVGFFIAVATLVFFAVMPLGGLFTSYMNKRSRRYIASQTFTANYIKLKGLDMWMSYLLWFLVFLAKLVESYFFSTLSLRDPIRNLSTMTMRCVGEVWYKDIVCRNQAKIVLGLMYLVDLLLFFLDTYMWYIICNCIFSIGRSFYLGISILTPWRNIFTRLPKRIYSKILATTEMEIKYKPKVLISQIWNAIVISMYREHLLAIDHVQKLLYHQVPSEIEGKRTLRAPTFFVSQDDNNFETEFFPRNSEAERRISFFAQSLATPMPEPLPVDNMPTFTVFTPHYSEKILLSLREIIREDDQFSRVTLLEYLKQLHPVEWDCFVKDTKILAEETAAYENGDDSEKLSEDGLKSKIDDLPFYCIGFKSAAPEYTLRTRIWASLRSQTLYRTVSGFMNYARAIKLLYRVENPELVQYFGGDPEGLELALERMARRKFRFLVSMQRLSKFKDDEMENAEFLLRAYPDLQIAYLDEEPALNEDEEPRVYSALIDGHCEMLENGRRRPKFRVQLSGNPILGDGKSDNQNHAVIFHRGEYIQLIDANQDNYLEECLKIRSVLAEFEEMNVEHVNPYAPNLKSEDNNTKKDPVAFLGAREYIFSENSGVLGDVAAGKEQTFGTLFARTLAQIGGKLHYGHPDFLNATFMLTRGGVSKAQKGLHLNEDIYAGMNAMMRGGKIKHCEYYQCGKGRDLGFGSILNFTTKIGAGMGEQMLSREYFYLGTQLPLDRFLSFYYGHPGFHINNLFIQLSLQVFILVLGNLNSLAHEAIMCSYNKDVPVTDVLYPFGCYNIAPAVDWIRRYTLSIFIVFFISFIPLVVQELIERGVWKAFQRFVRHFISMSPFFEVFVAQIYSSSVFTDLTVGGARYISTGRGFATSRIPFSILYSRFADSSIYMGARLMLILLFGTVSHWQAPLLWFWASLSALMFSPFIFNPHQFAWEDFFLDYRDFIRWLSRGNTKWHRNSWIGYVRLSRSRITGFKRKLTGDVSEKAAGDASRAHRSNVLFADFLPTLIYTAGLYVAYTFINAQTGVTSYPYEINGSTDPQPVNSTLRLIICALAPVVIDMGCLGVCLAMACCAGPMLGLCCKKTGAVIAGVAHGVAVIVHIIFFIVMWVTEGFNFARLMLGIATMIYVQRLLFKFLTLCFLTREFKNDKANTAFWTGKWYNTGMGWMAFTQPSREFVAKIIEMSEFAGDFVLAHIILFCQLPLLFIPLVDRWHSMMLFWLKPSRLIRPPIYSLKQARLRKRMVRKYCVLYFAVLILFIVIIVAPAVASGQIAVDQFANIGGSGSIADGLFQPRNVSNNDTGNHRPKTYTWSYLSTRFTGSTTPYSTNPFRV

This test concerns the target glucan synthase (GS) prepared from Candida albicans MY1055 (Candida albicans, UniProt O13428). The test is described as follows: Glucan synthase inhibition (polymerization assay, 96-well). Format: biochemical. To be noted: GS from C. albicans MY1055; 60 min incubation at 22° C.; read-out: Candida Albicans GS IC50 (converted). The method, then: The in vitro evaluation of glucan synthase inhibitory activity of compounds was measured in a polymerization assay in 96-well format. Each well contained 100 μL of ^3H-UDPG at 0.5 mM (6000 to 8000 dpm/nmol), 50 mM HEPES pH 7.5 (Sigma), 10% w/v glycerol (Sigma), 1.5 mg/mL bovine serum albumin (Sigma A 9647. Lot 44H0190), 25 mM KF (Fisher), 1 mM EDTA (Gibco ULTRAPURE), 25 μM GTP-γ-S, enzyme sufficient to give 3 to 6 nmoles incorporation during the 60 min incubation at 22° C., and test compound added from wells in 3-fold serial dilutions in 100% DMSO (1 μL/well). The reaction was stopped by the addition of 100 μL of 20% trichloroacetic acid. Plates were chilled for a minimum of 10 min, and precipitated glucan collected by filtration on GF/C plates (Packard UNIFILTER®-96), washed with 5 cycles of water (about 1 mL/well each cycle) using a Packard FILTERMATE HARVESTER. 40 μL/well scintillation fluid (Packard ULTIMA GOLD TM-XR) was added and the sealed plates counted in a WALLAC BETA counter in top-counting mode at an efficiency of approximately 40%.
Stock solutions were stored at 10 mg/mL in DMSO at −20° C. For each new enzyme preparation, the initial titration performed started at 1 mg/mL, which was prepared by making a 10-fold dilution in DMSO (5 μL to 50 μL). 40 μL of this stock was placed in column 12 of a round-bottomed 96-well microtiter plate. 40 μL DMSO was added to columns 1 to 11 in the same row and ten 3-fold serial dilutions performed, by transferring 20 μL from column 12 to column 11 etc., with 4 mixings before each transfer. No test compound was transferred to from column 2 to column 1. Duplicate aliquots of 1 μL of all 12 dilutions were then transferred to the side walls of a 96-well Bioblock 1.1 mL plate (Fisher brand) to create two rows.
Graphs of the primary data were created in PRISM software (the average of two determinations) using PRISM's curve fitting program (sigmoidal dose response non-linear regression). The amount of compound required to inhibit glucan synthase activity by 50% in this assay (IC50−ng/mL) was calculated.
Routine analysis was performed with glucan synthase (GS) prepared from Candida albicans MY1055 by the following procedure: MY1055 was grown in 10 liters YPD medium (10 g yeast extract, 20 g tryptone, 20 g glucose per liter) with vigorous shaking at 30° C., to early stationary phase. Cells were harvested by centrifugation, the pellet was washed and frozen at −70° C. until breakage. Thawed pellets were shaken with an equal volume of breakage buffer (50 mM HEPES pH 7.4, 10% glycerol, 1 mM EDTA, 1 mM PMSF, 1 mM DTT) and 4 times their weight of 0.5 mm acid washed glass beads for 2 hours at 4° C. Extent of breakage was assessed visually at 40× magnification. After low speed centrifugation to remove cell debris, the supernatant was centrifuged at 100,000×g for 60 min. to separate membranes plus ribosomes from cytoplasmic components. Membranes were further washed two additional times with breakage buffer using the same centrifugation conditions and finally suspended in breakage buffer at 25 to 30 mg/mL protein (Biorad) for storage at −70° C. Extraction of GS activity from membranes was performed at a protein concentration of 5 mg/mL in extraction buffer (50 mM NaPO4 pH 7.5, 0.1 M KCl, 0.1M Na citrate, 20% glycerol, 5 μM GTP-γ-S, 1 mM DTT, 1 mM PMSF, 3 μg/mL pepstatin) plus 0.25% W1 by gentle mixing at 4° C. for 60 min, followed by centrifugation at 100,000×g for 60 min. After centrifugation, clear supernatant was removed from a pellet consisting of a hard layer usually with small amounts of gelatinous unextracted membranes above it.
Trapping was initiated immediately by 5-fold dilution in trapping buffer (50 mM HEPES pH 7.5, 10 mM KF, 1 mM EDTA, 2 mg/mL BSA) plus 2.5 mM UDPG and 10 μM GTP-γ-S. After incubation at 25° C. for 60 to 90 minutes, glucan was harvested by low speed centrifugation (3,000×g, 10 min). […]
In the case of `CC(C)[C@@H](C)[C@@]1(C)CC[C@]2(C)[C@H]3CC[C@@H]4[C@@]5(COC[C@@]4(C)[C@@H](OCC(C)(C(C)C)N(C)C)[C@H](n4cnc(Cl)n4)C5)C3=CC(=O)[C@@]2(C)[C@@H]1C(=O)O` (stereo partly drawn) [Example 9C, (1S,4aR,6aS,7R,8R,10aR,10bR,12aR,14R,15R)-14-(3-chloro-1H-1,2,4-triazol-1-yl)-15-[2-(dimethylamino)-2,3-dimethylbutoxy]-8-[(1R)-1,2-dimethylpropyl]-1,6,6a,7,8,9,10,10a,10b,11,12,12a-dodecahydro-1,6a,8,10a-tetramethyl-6-oxo-4H-1,4a-propano-2H-phenanthro[1,2-c]pyran-7-carboxylic acid], the concentration for half-maximal inhibition (IC50) is 74.1 nM.

As for `CC(C)[C@@H](C)[C@@]1(C)CC[C@]2(C)[C@H]3CC[C@@H]4[C@@]5(COC[C@@]4(C)[C@@H](OC[C@](C)(N)C(C)(C)C)[C@H](n4ncnc4Br)C5)C3=CC[C@@]2(C)[C@@H]1C(=O)O` [Example 11, (1S,4aR,6aS,7R,8R,10aR,10bR,12aR,14R,15R)-15-[[(2R)-2-amino-2,3,3-trimethylbutyl]oxy]-14-(5-bromo-1H-1,2,4-triazol-1-yl)-8-[(1R)-1,2-dimethylpropyl]-1,6,6a,7,8,9,10,10a,10b,11,12,12a-dodecahydro-1,6a,8,10a-tetramethyl-4H-1,4a-propano-2H-phenanthro[1,2-c]pyran-7-carboxylic acid], the 50% inhibitory concentration (IC50) was 4.1 nM.

On to `CNC1(CO[C@H]2[C@H](n3ncnc3Cl)C[C@@]34COC[C@]2(C)[C@@H]3CC[C@H]2C4=CC[C@@]3(C)[C@H](C(=O)O)[C@@](C)([C@H](C)C(C)C)CC[C@]23C)CCOCC1` [Example 14, (1S,4aR,6aS,7R,8R,10aR,10bR,12aR,14R,15R)-14-(5-chloro-1H-1,2,4-triazol-1-yl)-8-[(1R)-1,2-dimethylpropyl]-15-[[tetrahydro-4-(methylamino)-2H-pyran-4-yl]methoxy]-1,6,6a,7,8,9,10,10a,10b,11,12,12a-dodecahydro-1,6a,8,10a-tetramethyl-4H-1,4a-propano-2H-phenanthro[1,2-c]pyran-7-carboxylic acid], for which the concentration for half-maximal inhibition (IC50) is 7.13 nM.

Regarding `CNC1(CO[C@H]2[C@H](n3cncn3)C[C@@]34COC[C@]2(C)[C@@H]3CC[C@H]2C4=CC[C@@]3(C)[C@H](C(=O)O)[C@@](C)([C@H](C)C(C)C)CC[C@]23C)CCCCC1` [Example 16, (1S,4aR,6aS,7R,8R,10aR,10bR,12aR,14R,15R)-8-[(1R)-1,2-dimethylpropyl]-15-[[1-(methylamino)cyclohexyl]methoxy]-14-(1H-1,2,4-triazol-1-yl)-1,6,6a,7,8,9,10,10a,10b,11,12,12a-dodecahydro-1,6a,8,10a-tetramethyl-4H-1,4a-propano-2H-phenanthro[1,2-c]pyran-7-carboxylic acid], the IC50 is 33.1 nM.

For the compound `CC(C)[C@@H](C)[C@@]1(C)CC[C@]2(C)[C@H]3CC[C@@H]4[C@@]5(COC[C@@]4(C)[C@@H](OC[C@@](C)(C(C)C)N(C)C)[C@H](n4cncn4)C5)C3=CC[C@@]2(C)[C@@H]1C(=O)O` [Example 18, (1S,4aR,6aS,7R,8R,10aR,10bR,12aR,14R,15R)-15-[[(2R)-2-(dimethylamino)-2,3-dimethylbutyl]oxy]-8-[(1R)-1,2-dimethylpropyl]-14-(1H-1,2,4-triazol-1-yl)-1,6,6a,7,8,9,10,10a,10b,11,12,12a-dodecahydro-1,6a,8,10a-tetramethyl-4H-1,4a-propano-2H-phenanthro[1,2-c]pyran-7-carboxylic acid], the IC50 was 12 nM.

On to `CC(C)[C@@H](C)[C@@]1(C)CC[C@]2(C)[C@H]3CC[C@@H]4[C@@]5(COC[C@@]4(C)[C@@H](OC[C@H](N)C(C)(C)C)[C@H](n4cnc(N)n4)C5)C3=CC[C@@]2(C)[C@@H]1C(=O)O` [Example 24, (1S,4aR,6aS,7R,8R,10aR,10bR,12aR,14R,15R)-15-[[(2R)-2-amino-3,3-dimethylbutyl]oxy]-14-(3-amino-1H-1,2,4-triazol-1-yl)-8-[(1R)-1,2-dimethylpropyl]-1,6,6a,7,8,9,10,10a,10b,11,12,12a-dodecahydro-1,6a,8,10a-tetramethyl-4H-1,4a-propano-2H-phenanthro[1,2-c]pyran-7-carboxylic acid], for which the IC50 is 16.8 nM.

Take `CC(C)[C@@H](C)[C@@]1(C)CC[C@]2(C)[C@H]3CC[C@@H]4[C@@]5(COC[C@@]4(C)[C@@H](OC[C@](C)(C(C)C)N(C)C)[C@H](n4cnc(N)n4)C5)C3=CC[C@@]2(C)[C@@H]1C(=O)O` [Example 27, (1S,4aR,6aS,7R,8R,10aR,10bR,12aR,14R,15R)-14-(3-amino-1H-1,2,4-triazol-1-yl)-15-[[(2S)-2-(dimethylamino)-2,3-dimethylbutyl]oxy]-8-[(1R)-1,2-dimethylpropyl]-1,6,6a,7,8,9,10,10a,10b,11,12,12a-dodecahydro-1,6a,8,10a-tetramethyl-4H-1,4a-propano-2H-phenanthro[1,2-c]pyran-7-carboxylic acid]: the IC50 was 16.1 nM.

On to `CC(C)[C@@H](C)[C@@]1(C)CC[C@]2(C)[C@H]3CC[C@@H]4[C@@]5(COC[C@@]4(C)[C@@H](OC[C@](C)(N)C(C)C)[C@H](n4ncnc4N)C5)C3=CC[C@@]2(C)[C@@H]1C(=O)O` [Example 31, (1S,4aR,6aS,7R,8R,10aR,10bR,12aR,14R,15R)-15-[[(2R)-2-amino-2,3-dimethylbutyl]oxy]-14-(5-amino-1H-1,2,4-triazol-1-yl)-8-[(1R)-1,2-dimethylpropyl]-1,6,6a,7,8,9,10,10a,10b,11,12,12a-dodecahydro-1,6a,8,10a-tetramethyl-4H-1,4a-propano-2H-phenanthro[1,2-c]pyran-7-carboxylic acid], for which the IC50 is 15.3 nM.

As for `CC(C)[C@@H](C)[C@@]1(C)CC[C@]2(C)[C@H]3CC[C@@H]4[C@@]5(COC[C@@]4(C)[C@@H](OC[C@](C)(N)C(C)C)[C@H](n4nc(Cl)nc4Cl)C5)C3=CC[C@@]2(C)[C@@H]1C(=O)O` [Example 34, (1S,4aR,6aS,7R,8R,10aR,10bR,12aR,14R,15R)-15-[[(2R)-2-amino-2,3-dimethylbutyl]oxy]-14-(3,5-dichloro-1H-1,2,4-triazol-1-yl)-8-[(1R)-1,2-dimethylpropyl]-1,6,6a,7,8,9,10,10a,10b,11,12,12a-dodecahydro-1,6a,8,10a-tetramethyl-4H-1,4a-propano-2H-phenanthro[1,2-c]pyran-7-carboxylic acid], the IC50 was 46.6 nM.

`CC(C)[C@@H](C)[C@@]1(C)CC[C@]2(C)[C@H]3CC[C@@H]4[C@@]5(COC[C@@]4(C)[C@@H](OC[C@](C)(N)C(C)C)[C@H](n4nc(N)nc4-c4ccccc4)C5)C3=CC[C@@]2(C)[C@@H]1C(=O)O` [Example 36, (1S,4aR,6aS,7R,8R,10aR,10bR,12aR,14R,15R)-15-[[(2R)-2-amino-2,3-dimethylbutyl]oxy]-14-(3-amino-5-phenyl-1H-1,2,4-triazol-1-yl)-8-[(1R)-1,2-dimethylpropyl]-1,6,6a,7,8,9,10,10a,10b,11,12,12a-dodecahydro-1,6a,8,10a-tetramethyl-4H-1,4a-propano-2H-phenanthro[1,2-c]pyran-7-carboxylic acid]: the IC50 is 13.7 nM.

A word on the IC50: it is the concentration that gives 50% inhibition.
